How the values were obtained:
JAK1 = JAK1 (Homo sapiens, UniProt P23458); assay: JAK1 kinase ADP-Glo assay (Example 60)
JAK2 = JAK2 (Homo sapiens, UniProt O60674); assay: JAK2 kinase ADP-Glo assay (Example 60)
JAK3 = JAK3 (Homo sapiens, UniProt P52333); assay: JAK3 kinase ADP-Glo assay (Example 60)
TYK2 = target: T1, TYK2 (Homo sapiens, UniProt P29597); assay: TYK2 kinase ADP-Glo assay (Example 60)
T1 sequence (P29597 871-1187 limits assumed): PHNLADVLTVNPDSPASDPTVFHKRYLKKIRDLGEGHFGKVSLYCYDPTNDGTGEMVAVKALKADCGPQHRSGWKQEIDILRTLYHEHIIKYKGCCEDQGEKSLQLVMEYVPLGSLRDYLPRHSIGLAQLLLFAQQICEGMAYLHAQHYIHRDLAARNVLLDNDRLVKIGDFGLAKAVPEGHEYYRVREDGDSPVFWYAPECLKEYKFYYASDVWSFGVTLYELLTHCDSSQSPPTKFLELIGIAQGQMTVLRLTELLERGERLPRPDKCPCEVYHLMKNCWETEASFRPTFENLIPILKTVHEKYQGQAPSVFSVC

Chain of JAK1 (P23458 850-1154 limits assumed): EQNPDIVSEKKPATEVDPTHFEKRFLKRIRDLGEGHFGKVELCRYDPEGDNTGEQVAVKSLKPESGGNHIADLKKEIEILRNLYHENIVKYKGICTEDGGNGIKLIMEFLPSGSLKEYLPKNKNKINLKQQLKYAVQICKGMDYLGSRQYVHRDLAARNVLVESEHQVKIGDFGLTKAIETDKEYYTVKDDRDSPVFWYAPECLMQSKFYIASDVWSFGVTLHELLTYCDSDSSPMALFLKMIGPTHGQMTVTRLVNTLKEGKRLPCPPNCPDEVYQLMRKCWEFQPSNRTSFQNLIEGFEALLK
Chain of JAK3 (P52333 795-1124 limits assumed): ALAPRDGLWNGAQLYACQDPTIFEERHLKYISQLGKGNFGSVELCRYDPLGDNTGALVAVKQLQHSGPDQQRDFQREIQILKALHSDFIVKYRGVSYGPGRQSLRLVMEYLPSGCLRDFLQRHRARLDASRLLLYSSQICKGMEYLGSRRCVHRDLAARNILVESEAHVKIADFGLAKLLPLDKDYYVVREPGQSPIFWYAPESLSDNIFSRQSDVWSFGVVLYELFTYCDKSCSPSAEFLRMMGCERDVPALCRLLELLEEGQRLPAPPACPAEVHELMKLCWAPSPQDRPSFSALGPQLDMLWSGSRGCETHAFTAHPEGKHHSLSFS
Chain of JAK2 (O60674 826-1132 limits assumed): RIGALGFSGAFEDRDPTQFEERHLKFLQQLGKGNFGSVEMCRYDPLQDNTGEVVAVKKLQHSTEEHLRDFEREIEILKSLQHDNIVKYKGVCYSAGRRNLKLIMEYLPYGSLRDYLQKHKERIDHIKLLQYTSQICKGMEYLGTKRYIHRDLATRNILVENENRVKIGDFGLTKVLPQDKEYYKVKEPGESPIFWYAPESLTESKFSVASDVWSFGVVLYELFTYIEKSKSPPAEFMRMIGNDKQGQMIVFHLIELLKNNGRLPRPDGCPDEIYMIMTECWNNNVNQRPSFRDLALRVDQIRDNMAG

| Compound | IC50 (JAK1) | IC50 (JAK2) | IC50 (JAK3) | IC50 (TYK2) |
| --- | --- | --- | --- | --- |
| CCc1cc(O)c(F)cc1-c1ccc2c(-c3nc4c([nH]3)CN(C(=O)N3CC5(CNC5)C3)C4)n[nH]c2c1 [MDI-261, (2-(6-(2-ethyl-5-fluoro-4-hydroxyphenyl)-1H-indazol-3-yl)-4,6-dihydropyrrolo[3,4-d]imidazol-5(1H)-yl)(2,6-diazaspiro[3.3]heptan-2-yl)ketone] | 154 pM | 703 pM | 473 pM | 1160 pM |
| CCc1cc(O)c(F)cc1-c1ccc2c(-c3nc4c([nH]3)CN(C(=O)N3CC[C@@H](O)C3)C4)n[nH]c2c1 [MDI-243, (R)-(2-(6-(2-ethyl-5-fluoro-4-hydroxyphenyl)-1H-indazol-3-yl)-4,6-dihydropyrrolo[3,4-d]imidazol-5(1H)-yl)(3-hydroxylpyrrolidin-1-yl)ketone] | 118 pM | 499 pM | 269 pM | 167 pM |
| CCc1cc(O)c(F)cc1-c1ccc2c(-c3nc4c([nH]3)CN(C3CCOCC3)C4)n[nH]c2c1 [MDI-225, 5-ethyl-2-fluoro-4-(3-(5-(tetrahydro-2H-pyran-4-yl)-1,4,5,6-tetrahydropyrrolo[3,4-d]imidazol-2-yl)-1H-indazol-6-yl)phenol] | 226 pM | 390 pM | 487 pM | 3500 pM |
| CCc1cc(O)c(F)cc1-c1ccc2c(-c3nc4c([nH]3)CN(C(=O)N3CCOCC3)C4)n[nH]c2c1 [MDI-234, (2-(6-(2-ethyl-5-fluoro-4-hydroxyphenyl)-1H-indazol-3-yl)-4,6-dihydropyrrolo[3,4-d]imidazol-5-(1H)-yl)(morpholino)ketone] | 206 pM | 737 pM | 375 pM | 438 pM |
| CCc1cc(O)c(F)cc1-c1ccc2c(-c3nc4c([nH]3)CN(C(=O)N3CC[C@H](O)C3)C4)n[nH]c2c1 [MDI-216, (S)-(2-(6-(2-ethyl-5-fluoro-4-hydroxyphenyl)-1H-indazol-3-yl)-4,6-dihydropyrrolo[3,4-d]imidazol-5-(1H)-yl)(3-hydroxylpyrrolidin-1-yl)ketone] | 134 pM | 233 pM | 247 pM | 1620 pM |
| CCc1cc(O)c(F)cc1-c1ccc2c(-c3nc4c([nH]3)CN(C(=O)N3CCN(CC)CC3)C4)n[nH]c2c1 [MDI-236, (2-(6-(2-ethyl-5-fluoro-4-hydroxyphenyl)-1H-indazol-3-yl)-4,6-dihydropyrrolo[3,4-d]imidazol-5-(1H)-yl)(4-ethylpiperazin-1-yl)ketone] | 40.3 pM | 329 pM | 141 pM | 95.4 pM |
| CCc1cc(O)c(F)cc1-c1ccc2c(-c3nc4c([nH]3)CN(C(=O)N3CC(O)C3)C4)n[nH]c2c1 [MDI-244, (2-(6-(2-ethyl-5-fluoro-4-hydroxyphenyl)-1H-indazol-3-yl)-4,6-dihydropyrrolo[3,4-d]imidazol-5(1H)-yl)(3-hydroxylazetidin-1-yl)ketone] | 248 pM | 915 pM | 550 pM | 1310 pM |
| CCc1cc(O)c(F)cc1-c1ccc2c(-c3nc4c([nH]3)CN(C(=O)N3CCCCC3)C4)n[nH]c2c1 [MDI-233, (2-(6-(2-ethyl-5-fluoro-4-hydroxyphenyl)-1H-indazol-3-yl)-4,6-dihydropyrrolo[3,4-d]imidazol-5-(1H)-yl)(piperidin-1-yl)ketone] | 1310 pM | 1330 pM | 2600 pM | 3500 pM |
| CCc1cc(O)c(F)cc1-c1cc(C)c2c(-c3nc4c([nH]3)CN(C(=O)C3CC3)C4)n[nH]c2c1 [MDI-239, cyclopropyl (2-(6-(2-ethyl-5-fluoro-4-hydroxyphenyl)-4-methyl-1H-indazol-3-yl)-4,6-dihydropyrrolo[3,4-d]imidazol-5(1H)-yl)ketone] | 1150 pM | 1200 pM | 4940 pM | 19200 pM |
| CCc1cc(O)c(F)cc1-c1ccc2c(-c3nc4c([nH]3)CN(C(=O)NC3CCOC3)C4)n[nH]c2c1 (stereo not drawn) [MDI-251, 2-(6-(2-ethyl-5-fluoro-4-hydroxyphenyl)-1H-indazol-3-yl)-N-(tetrahydrofuran-3-yl)-4,6-dihydropyrrolo[3,4-d]imidazol-5(1H)-carboxamide] | 144 pM | 818 pM | 406 pM | 1330 pM |
| CCC(=O)N1Cc2nc(-c3n[nH]c4cc(-c5cc(F)c(O)cc5CC)ccc34)[nH]c2C1 [MDI-227, 1-(2-(6-(2-ethyl-5-fluoro-4-hydroxyphenyl)-1H-indazol-3-yl)-4,6-dihydropyrrolo[3,4-d]imidazol-5-(1H)-yl)propan-1-one] | 224 pM | 246 pM | 441 pM | 3890 pM |
| CCc1cc(O)c(F)cc1-c1ccc2c(-c3nc4c([nH]3)CN(C(=O)[C@@H]3CCCN3)C4)n[nH]c2c1 [MDI-262, (S)-6-(2-ethyl-5-fluoro-4-hydroxyphenyl)-3-(5-prolyl-1,4,5,6-tetrahydropyrrolo[3,4-d]imidazol-2-yl)-1H-indazol] | 319 pM | 1540 pM | 1220 pM | 2590 pM |

The remaining compounds from weak to strong by IC50 (JAK1), led by results:

| IC50 (JAK1) | IC50 (JAK2) | IC50 (JAK3) | IC50 (TYK2) | Compound |
| --- | --- | --- | --- | --- |
| 57200 pM | 37400 pM |  |  | CCc1cc(O)c(F)cc1-c1ccc2c(-c3nc4c([nH]3)CN(C(=O)N3CC[C@H](O)C3)C4)n[nH]c2n1 [MDI-255, (S)-(2-(6-(2-ethyl-5-fluoro-4-hydroxyphenyl)-1H-pyrazolo[3,4-b]pyridine-3-yl)-4,6-dihydropyrrolo[3,4-d]imidazol-5(1H)-yl)(3-hydroxylpyrrolidin-1-yl)ketone] |
| 1800 pM | 2600 pM | 2200 pM | 22000 pM | CCc1cc(O)c(F)cc1-c1ccc2c(-c3nc4c([nH]3)CN(C(=O)OC)C4)n[nH]c2c1 [MDI-252, Methyl 2-(6-(2-ethyl-5-fluoro-4-hydroxyphenyl)-1H-indazol-3-yl)-4,6-dihydropyrrolo[3,4-d]imidazol-5(1H)-carboxylate] |
| 939 pM | 3310 pM | 2360 pM | 6270 pM | CCc1cc(O)c(F)cc1-c1ccc2c(-c3nc4c([nH]3)CN(C(=O)NCCC#N)C4)n[nH]c2c1 [MDI-258, N-(2-cyanoethyl)-2-(6-(2-ethyl-5-fluoro-4-hydroxyphenyl)-1H-indazol-3-yl)-4,6-dihydropyrrolo[3,4-d]imidazole-5(1H)-carboxamide] |
| 819 pM | 555 pM | 821 pM | 6570 pM | CCc1cc(O)c(F)cc1-c1ccc2c(-c3nc4c([nH]3)CN(C(=O)CC(C)C)C4)n[nH]c2c1 [MDI-230, 1-(2-(6-(2-ethyl-5-fluoro-4-hydroxyphenyl)-1H-indazol-3-yl)-4,6-dihydropyrrolo[3,4-d]imidazol-5-(1H)-yl)-3-methylbutan-1-one] |
| 758 pM | 588 pM | 1390 pM | 9680 pM | CCc1cc(O)c(F)cc1-c1cnc2c(-c3nc4c([nH]3)CN(C(=O)C3CC3)C4)n[nH]c2c1 [MDI-237, cyclopropyl (2-(6-(2-ethyl-5-fluoro-4-hydroxyphenyl)-1H-pyrazolo[4,3-b]pyridine-3-yl)-4,6-dihydropyrrolo[3,4-d]imidazol-5(1H)-yl)ketone] |
| 753 pM | 356 pM | 481 pM | 4710 pM | CCc1cc(O)c(F)cc1-c1ccc2c(-c3nc4c([nH]3)CN(C(=O)CC3CC3)C4)n[nH]c2c1 [MDI-229, 2-cyclopropyl-1-(2-(6-(2-ethyl-5-fluoro-4-hydroxyphenyl)-1H-indazol-3-yl)-4,6-dihydropyrrolo[3,4-d]imidazol-5-(1H)-yl)ethan-1-one] |
| 745 pM | 1040 pM | 868 pM | 2260 pM | CCc1cc(O)c(F)cc1-c1ccc2c(-c3nc4c([nH]3)CN(C(=O)N3CCC3)C4)n[nH]c2c1 [MDI-232, Azetidin-1-yl(2-(6-(2-ethyl-5-fluoro-4-hydroxyphenyl)-1H-indazol-3-yl)-4,6-dihydropyrrolo[3,4-d]imidazol-5-(1H)-yl)ketone] |
| 659 pM | 1300 pM | 1290 pM | 2940 pM | CCc1cc(O)c(F)cc1-c1ccc2c(-c3nc4c([nH]3)CN(C(=O)NC3CC3)C4)n[nH]c2c1 [MDI-259, N-cyclopropyl-2-(6-(2-ethyl-5-fluoro-4-hydroxyphenyl)-1H-indazol-3-yl)-4,6-dihydropyrrolo[3,4-d]imidazol-5(1H)-carboxamide] |
| 530 pM | 1170 pM | 893 pM | 1310 pM | CCc1cc(O)c(F)cc1-c1ccc2c(-c3nc4c([nH]3)CN(C(=O)N3CCCC3)C4)n[nH]c2c1 [MDI-231, (2-(6-(2-ethyl-5-fluoro-4-hydroxyphenyl)-1H-indazol-3-yl)-4,6-dihydropyrrolo[3,4-d]imidazol-5-(1H)-yl)(pyrrolidin-1-yl)ketone] |
| 185 pM | 600 pM | 381 pM | 684 pM | CCc1cc(O)c(F)cc1-c1ccc2c(-c3nc4c([nH]3)CN(C(=O)N(C)C)C4)n[nH]c2c1 [MDI-257, 2-(6-(2-ethyl-5-fluoro-4-hydroxyphenyl)-1H-indazol-3-yl)-N,N-dimethyl-4,6-dihydropyrrolo[3,4-d]imidazol-5(1H)-carboxamide] |
| 39.5 pM | 166 pM | 183 pM | 142 pM | CCc1cc(O)c(F)cc1-c1ccc2c(-c3nc4c([nH]3)CN(C(=O)N3CCN(C)CC3)C4)n[nH]c2c1 [MDI-235, (2-(6-(2-ethyl-5-fluoro-4-hydroxyphenyl)-1H-indazol-3-yl)-4,6-dihydropyrrolo[3,4-d]imidazol-5-(1H)-yl)(4-methylpiperazin-1-yl)ketone] |
